Data as given in PubChem BioAssay (NCI).
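Tested at 5 concentrations; 48 h exposure; 96-well plates; endpoints linearly interpolated, else capped at highest concentration. GI50 = concentration required for 50% inhibition of growth. TGI: total growth inhibition.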

Key:
Assay in all cases: DTP human tumour cell line panel, 48 h
OVCAR-4 ovarian = tested on: OVCAR-4 ovarian
NCI-H522 lung = tested on: NCI-H522 lung
CAKI-1 renal = tested on: CAKI-1 renal
TK-10 renal = tested on: TK-10 renal
SW-620 colon = tested on: SW-620 colon
MDA-MB-231 breast = tested on: MDA-MB-231 breast
HS 578T breast = tested on: HS 578T breast
A549 NSCLC = tested on: A549 NSCLC
OVCAR-8 ovarian = tested on: OVCAR-8 ovarian
MDA-N = tested on: MDA-N
HOP-62 NSCLC = tested on: HOP-62 NSCLC

Structure (SMILES)	TGI (OVCAR-4 ovarian) [µM]	TGI (NCI-H522 lung) [µM]	TGI (CAKI-1 renal) [µM]	TGI (TK-10 renal) [µM]	TGI (SW-620 colon) [µM]	TGI (MDA-MB-231 breast) [µM]	TGI (HS 578T breast) [µM]	TGI (A549 NSCLC) [µM]	TGI (OVCAR-8 ovarian) [µM]	TGI (MDA-N) [µM]	TGI (HOP-62 NSCLC) [µM]	GI50 (CAKI-1 renal) [µM]	GI50 (TK-10 renal) [µM]	GI50 (SW-620 colon) [µM]	GI50 (MDA-MB-231 breast) [µM]	GI50 (A549 NSCLC) [µM]	GI50 (OVCAR-8 ovarian) [µM]	GI50 (OVCAR-4 ovarian) [µM]	GI50 (HS 578T breast) [µM]	GI50 (HOP-62 NSCLC) [µM]
NC(CCP(=O)(O)CCC1C=CC=CC1)C(=O)O (configuration not stated)	> 100	55.4	> 100	> 100	> 100	> 100	> 100	> 100	> 100	> 100	–	–	–	–	–	–	–	–	–	–
CC(C)(C)[Si](C)(C)OCC1CCC(n2cnc3c(N)ncnc32)O1 (configuration not stated)	> 100	–	> 100	> 100	> 100	> 100	> 100	–	> 100	> 100	> 100	–	–	–	–	–	–	–	–	–
COC(=O)c1ccc(N=NN(C)COc2ccc([N+](=O)[O-])cc2)cc1	> 100	> 100	> 100	–	> 100	–	–	> 100	> 100	–	> 100	–	–	–	–	–	–	–	–	–
O=[N+]([O-])c1ccc(Nc2nc3ccccc3s2)cc1	> 100	35.9	> 100	88	> 100	40.2	> 100	> 100	> 100	–	> 100	–	–	–	–	–	–	–	–	–
COc1cc(C2=C(C#N)C(N)OC3=C2COc2ccccc23)cc(OC)c1OC (configuration not stated)	45.7	–	–	30.2	> 100	43.8	–	49.3	–	> 100	20.2	–	–	–	–	–	–	–	–	–
CC1=CC(=O)C(=O)C2=C1OC1(C2)C(C)CCC2C3(C)CCC(O)C(C)(C)C3CCC21C (configuration not stated)	37.4	30.7	33.8	34.5	46.1	–	–	> 100	44.7	–	35	–	–	–	–	–	–	–	–	–
COC1CC(OC2CCC3(C)C(CCC45CCC(C6=CC(=O)OC6)C(C)(CCC43)C5=O)C2)OC(C)C1O (configuration not stated)	–	82.1	80.1	> 100	> 100	> 100	> 100	> 100	> 100	> 100	51.3	–	–	–	–	–	–	–	–	–
NNc1nc2ccccc2s1	> 100	> 100	> 100	> 100	> 100	> 100	> 100	> 100	> 100	> 100	–	–	–	–	–	–	–	–	–	–
Nc1ccc2c3c(n(CCCCl)c(=O)c2c1)-c1cc2c(cc1C3=O)OCO2	–	–	> 100	> 100	> 100	> 100	–	> 100	> 100	–	–	1.03	> 100	> 100	60.1	7.75	> 100	–	–	–
CCC(=O)NC(Nc1ccc(O)cc1)(C(F)(F)F)C(F)(F)F	–	66.6	–	> 100	–	> 100	> 100	–	–	35.3	> 100	–	–	–	–	–	–	–	–	–
CC12CCC(C(=O)N3CC=CCC3)(OC1=O)C2(C)C (configuration not stated)	> 100	> 100	> 100	–	> 100	–	–	> 100	> 100	–	> 100	–	–	–	–	–	–	–	–	–
c1cn2cc(-c3ccc4ncn(C5CCCCC5)c4c3)nc(-c3ccc4c(c3)ncn4C3CCCCC3)c2n1	6.3	–	2.95	–	–	3.08	6.74	3.54	9.49	–	3.72	1.46	–	–	1.29	1.94	2.55	2.17	2.39	2
O=C(O)C1Cc2c([nH]c3ccccc23)C=N1 (configuration not stated)	> 100	> 100	> 100	–	> 100	–	–	> 100	> 100	–	> 100	–	–	–	–	–	–	–	–	–
